From paper PMC8161536, “Structure-tuned membrane active Ir-complexed oligoarginine overcomes cancer cell drug resistance and triggers immune responses in mice” (Chemical Science, 2020)

Key:
Type in all cases: cell-based
[1] = test system: A549/DDP; assay: MTT cytotoxicity, cisplatin-resistant A549/DDP; conditions: Ir-cR8 24 h, cisplatin 48 h, unit inferred, test concentrations in μM, read-out: Antiproliferative activity (IC50) A549/DDP
Experimental: (Waters Corp., USA) The gradient mobile phase consisted of acetonitrile (A) and H2O (B) both containing […] A typical 15 min sample run consisted of 2 min of 20% solvent A and 80% solvent B followed by an increment of solvent A up to 23% for the remaining 2 min. Then the proportion of solvent A was increased to 45% in the following 8 min and decreased to 20% in the last 3 min. The analytes were monitored by a photo diode array (PDA) detector set at 220 nm and 254 nm and the flow rate was set to 0.3 mL min-1. The separated metallopeptides were collected to lyophilized and quantified by ICP-MASS, then for MTT assay. Circular dichroism assay of Ir-peptides […] The collected Ir- peptides were lyophilized and quantified by ICP-MASS. The Ir-peptides, isomers, mixture of two isomers were diluted to same concentration for circular dichroism test. (Chirascan-plus, Applied photophysics) LogP assay Water and octanol (1:1, v/v) were saturated for 24 h at room temperature and separated as aqueous phase and oil phase. Ir- […] […] CCK-8 of 20 μL was added in each well and incubated for 4 h, then the absorbance at 450 nm of each well was obtained by microplate spectrophotometer to calculate the cell viability. […] The absorbance […]

[2] = test system: HL60; assay: CCK-8 cytotoxicity, HL60; conditions: Homo sapiens, HL-60; read-out: Antiproliferative activity (IC50) HL60
[3] = test system: HL60/Ara-C; assay: CCK-8 cytotoxicity, cytarabine-resistant HL60/Ara-C; conditions: Homo sapiens, HL-60; read-out: Antiproliferative activity (IC50) HL60/Ara-C
[4] = test system: HL60/ADR; assay: CCK-8 cytotoxicity, doxorubicin-resistant HL60/ADR; conditions: Homo sapiens, read-out: Antiproliferative activity (IC50) HL60/ADR
[5] = test system: A549/Taxol; assay: MTT cytotoxicity, paclitaxel-resistant A549/Taxol; conditions: read-out: Antiproliferative activity (IC50) A549/Taxol
Experimental: mm × 2.1 mm column. (Waters Corp., USA) The gradient mobile phase consisted of acetonitrile (A) and H2O (B) both containing
0.1% trifluoroacetic acid. A typical 15 min sample run consisted of 2 min of 20% solvent A and 80% solvent B followed by an
increment of solvent A up to 23% for the remaining 2 min. Then the proportion of solvent A was increased to 45% in the
following 8 min and decreased to 20% in the last 3 min. The analytes were monitored by a photo diode array (PDA) detector
set at 220 nm and 254 nm and the flow rate was set to 0.3 mL min-1. The separated metallopeptides were collected to
lyophilized and quantified by ICP-MASS, then for MTT assay.
Circular dichroism assay of Ir-peptides
peptides were lyophilized and quantified by ICP-MASS. The Ir-peptides, isomers, mixture of two isomers were diluted to same
concentration for circular dichroism test. (Chirascan-plus, Applied photophysics)
Water and octanol (1:1, v/v) were saturated for 24 h at room temperature and separated as aqueous phase and oil phase. Ir- […]
the standard curves by fluorescence spectrophotometer, Ex Slit:5.0 nm, Em Slit:5.0 nm, 650 V. Then the aqueous phase’s
fluorescence intensities in samples containing both oil and aqueous phases were scanned, the concentration in aqueous phase
of each Ir-peptide was calculated by standard curve, the Ir-peptide’s initial concentration in aqueous phase minus 24 hour’s […]

[6] = test system: HeLa cells; conditions: 24 h
Experimental: (Waters Corp., USA) The gradient mobile phase consisted of acetonitrile (A) and H2O (B) both containing […] A typical 15 min sample run consisted of 2 min of 20% solvent A and 80% solvent B followed by an increment of solvent A up to 23% for the remaining 2 min. Then the proportion of solvent A was increased to 45% in the following 8 min and decreased to 20% in the last 3 min. The analytes were monitored by a photo diode array (PDA) detector set at 220 nm and 254 nm and the flow rate was set to 0.3 mL min-1. The separated metallopeptides were collected to lyophilized and quantified by ICP-MASS, then for MTT assay. Circular dichroism assay of Ir-peptides […] The collected Ir- peptides were lyophilized and quantified by ICP-MASS. The Ir-peptides, isomers, mixture of two isomers were diluted to same concentration for circular dichroism test. (Chirascan-plus, Applied photophysics) LogP assay Water and octanol (1:1, v/v) were saturated for 24 h at room temperature and separated as aqueous phase and oil phase. Ir- […] Samples were stirred for 24 h at room […] the standard curves by fluorescence spectrophotometer, Ex Slit:5.0 nm, Em Slit:5.0 nm, 650 V. Then the aqueous phase's fluorescence intensities in samples containing both oil and aqueous phases were scanned, the concentration in aqueous phase of each Ir-peptide was calculated by standard curve, the Ir-peptide's initial concentration in aqueous phase minus 24 hour's concentration in aqueous phase to obtain the 24 hour's concentration in oil phase, logP=log(c oil/caqueous). Cell culture […] cells were incubated in RPMI 1640 medium with 10% fetal bovine serum, 37 °C, 5%CO2. […] Pharmacology Department, College of Pharmaceutical Sciences, Soochow University. […] obtained from Institute of Hematology and Blood Diseases Hospital, Chinese Academy of Medical Sciences & Peking Union Medical College. Induction of cisplatin resistant A549/DDP cells […] entering the logarithmic growth period. Then the medium was replaced by DMEM medium containing 10% fetal bovine serum and 0.125 μM cisplatin. The cells were incubated with cisplatin for 24 h and the medium was removed and no cisplatin DMEM […] The induction followed this […] The concentration of cisplatin was twice as much as before in each induction. Then the cells were incubated with DMEM containing 10% fetal bovine serum and 4 μM cisplatin for two months and medium containing cisplatin was replaced by no-cisplatin medium two weeks before experiment. Cytotoxicity HeLa cells were cultured in 96-well microplates, 8*10^3 cells per well overnight. […] CCK-8 of 20 μL was added in each well and incubated for 4 h, then the absorbance at 450 nm of each well was obtained by microplate spectrophotometer to calculate the cell viability. […] The absorbance […]

## N.N.[Cl][Pt][Cl] [Cisplatin, cisplatin]
[1]
  IC50: > 128 µM

## Nc1ccn([C@@H]2O[C@H](CO)[C@@H](O)[C@@H]2O)c(=O)n1 [Cytarabine, cytarabine]
[2]
  IC50: 0.07 ± 0.003 µM
[3]
  IC50: > 128 µM

## COc1cccc2c1C(=O)c1c(O)c3c(c(O)c1C2=O)C[C@@](O)(C(=O)CO)C[C@@H]3O[C@H]1C[C@H](N)[C@H](O)[C@H](C)O1 [Doxorubicin, doxorubicin]
[2]
  IC50: 0.13 ± 0.06 µM
[4]
  IC50: 8.3 ± 0.2 µM

## CC(=O)O[C@H]1C(=O)[C@@]2(C)[C@H]([C@H](OC(=O)c3ccccc3)[C@]3(O)C[C@H](OC(=O)[C@H](O)[C@@H](NC(=O)c4ccccc4)c4ccccc4)C(C)=C1C3(C)C)[C@]1(OC(C)=O)CO[C@@H]1C[C@@H]2O [Paclitaxel, paclitaxel]
[5]
  IC50: 25.8 ± 0.5 µM

## Ac-HHRRR-NH2 [aR3]
[6]
  IC50: > 100 µM

## Ac-HHRRRR-NH2 [aR4]
[6]
  IC50: > 100 µM

## Ac-HRRRH-NH2 [cR3]
[6]
  IC50: > 100 µM

## Ac-HRRRRH-NH2 [cR4]
[6]
  IC50: > 100 µM
